Assay results published in patent US8163709B2, “TAK1-D mediated induction of cell death in human cancer cells by specific sequence short double-stranded RNAS” (Board of Regents of the University of Texas System, priority 2008, dated 2012).
“Also recorded” adds a separate entry of the source.

Key:
SAPK/JNK pathway = experiment: Activation of the SAPK/JNK pathway in H460 cells (Western blot); type: cell-based, human; conditions: for activation of the SAPK/JNK pathway (phosphorylation of MKK4, SAPK/JNK): H460 cells, 20 nM RNA, 2-6 h
HCC2279 cells = experiment: Crystal Violet staining of HCC2279 cells; type: cell-based, human; conditions: 48 h
Description: To test whether the dsRNA mediated activation of the stress-activated protein kinase cascade also leads to cell death in HCC2279 cells, the cells were plated in a 12 well multi-well plated, treated with siRNA si5 or as a control with siRNA si6 and stained with Crystal Violet 48 h later. […] The data presented as well as the widespread expression of Tak1-D in tissues like lung, brain, liver, and prostate (Dempsey et al., 2000) makes targeted activation of TAK1-D by specific dsRNA an interesting treatment opportunity for these types of cancer.

H460 cells = experiment: Survival assay of H460 cells, Crystal Violet staining
TLK1 = TLK1 protein level in NCI-H460 cells (Western blot); type: cell-based, human; conditions: first 6 h after addition
From the text: FIGS. 3A-D illustrate the timecourse as well the downstream signaling events of dsRNA mediated Tak1-D activation in more detail. […] This activation is not triggered by siRNA si6 or by the non-targeting scrambled sequence siNT, even at later timepoints. […] The activation of TAK1-D leads to a phosphorylation of the MAPKKs of both stress activated protein kinase signaling pathways, indicated by the occurrence of activation phosphorylation on MKK3/6 and MKK4 (FIG. 3A). Consecutively activation of MKK3/6 leads to phosphorylation and activation of the p38 MAPK, while activation of MKK4 phosphorylates and activates SAPK/JNK. These mitogen activated protein kinase kinases phosphorylate and activate their respective substrates p38 MAP kinase and SAPK/JNK. […] This provided further confirmation, apart from the rapid occurrence of TAK1-D phosphorylation, that gene silencing effects of the siRNAs play no role in the phenomena described.

p38 = p38 activation in mouse peritoneal macrophages; type: cell-based; conditions: 4 h
Description: It has been reported (Dempsey et al., 2000) that the splicing variant D of TAK1 could not be detected in many cell lines despite its expression in the parental tissue, most probably due to downregulation of the transcript during in vitro culture. Therefore, the inventors used macrophages 24 h after obtaining them from athymic NCR-NU/NU female mice by peritoneal lavage.

p38 MAP kinase pathway = experiment: Activation of the p38 MAP kinase pathway in H460 cells (Western blot); type: cell-based, human; conditions: for activation of the p38 MAP kinase pathway (phosphorylation of MKK3/6, p38 MAPK): H460 cells, 20 nM RNA, 2-6 h
From the text: Both siRNAs were directed against the mRNA of the same gene TLK1.

TAK1-D/TAB1 complex = molecular target: T1, TAK1-D/TAB1 complex (Homo sapiens, UniProt O43318); experiment: In vitro kinase assay with purified FLAG-TAK1-D/His-TAB1; type: biochemical; conditions: purified proteins, cell-free
T1 construct: made in house; host or cells: HeLa cells
T1 sequence (O43318 1-491 isoform O43318-4): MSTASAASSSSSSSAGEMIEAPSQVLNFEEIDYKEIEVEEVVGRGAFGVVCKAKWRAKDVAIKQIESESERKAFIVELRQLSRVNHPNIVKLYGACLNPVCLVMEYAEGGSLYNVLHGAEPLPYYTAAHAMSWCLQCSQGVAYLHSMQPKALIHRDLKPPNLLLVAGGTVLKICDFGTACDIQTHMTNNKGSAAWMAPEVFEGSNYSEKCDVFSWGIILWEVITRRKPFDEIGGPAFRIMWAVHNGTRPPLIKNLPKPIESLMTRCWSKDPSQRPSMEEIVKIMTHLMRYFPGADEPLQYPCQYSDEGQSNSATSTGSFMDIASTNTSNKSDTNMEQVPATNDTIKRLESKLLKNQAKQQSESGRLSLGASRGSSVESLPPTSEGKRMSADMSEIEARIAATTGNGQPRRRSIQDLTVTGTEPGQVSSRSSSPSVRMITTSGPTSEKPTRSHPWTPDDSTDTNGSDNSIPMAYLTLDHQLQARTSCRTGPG
T1 sequence (Q15750 1-504 partner): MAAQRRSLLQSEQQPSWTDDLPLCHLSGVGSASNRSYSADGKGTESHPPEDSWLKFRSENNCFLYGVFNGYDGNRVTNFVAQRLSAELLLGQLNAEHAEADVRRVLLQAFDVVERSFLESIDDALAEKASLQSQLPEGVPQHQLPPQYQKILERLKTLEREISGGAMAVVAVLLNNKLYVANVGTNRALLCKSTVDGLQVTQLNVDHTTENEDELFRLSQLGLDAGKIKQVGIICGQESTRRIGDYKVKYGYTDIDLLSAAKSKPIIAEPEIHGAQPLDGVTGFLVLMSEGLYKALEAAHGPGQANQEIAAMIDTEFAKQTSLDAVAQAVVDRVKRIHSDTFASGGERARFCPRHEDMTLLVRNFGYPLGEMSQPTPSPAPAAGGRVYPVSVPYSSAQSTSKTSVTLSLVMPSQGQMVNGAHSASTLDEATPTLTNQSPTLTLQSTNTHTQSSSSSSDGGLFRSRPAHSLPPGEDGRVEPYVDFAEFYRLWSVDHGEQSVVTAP
From the text: FIGS. 2A-C: Effect of dsRNAs on the activity of purified recombinant TAK1-D protein. (FIG. 2A) In vitro kinase assay showing the activation of TAK1-D autophosphorylation by siRNA si5. FLAG-tagged TAK1-D and His-tagged TAB1 were coexpressed in Hela cells and purified by immunoprecipitation with anti FLAG antibody. […] Error bars indicate the standard error of 3 experiments.
To verify if siRNA si5 indeed interacts with TAK1-D directly, the activation of the kinase was studied in vitro using purified proteins. […] To test whether the increased activation of the TAK1-D/TAB1 complex by siRNA si5 is caused by an increased affinity of the RNA molecule to the kinase, binding of radiolabeled siRNAs to immunoprecipitated FLAG tagged TAK1-D was measured. In FIG. 2C the amount of RNA bound to immobilized FLAG-TAK1-D is given.
FLAG-tagged TAK1-D and HIS-tagged TAB1 were co-expressed in HeLa cells and the proteins were purified through immunoprecipitation with an anti-FLAG antibody.

[1] = H460 stably transfected with K63W vs wt and vector, 4 h

Substance	activation of the SAPK/JNK pathway (phosphorylation of MKK4, SAPK/JNK) (SAPK/JNK pathway)	activation of the SAPK/JNK pathway (phosphorylation of MKK4, SAPK/JNK) (SAPK/JNK pathway; listed as Si5)	activating phosphorylation of SAPK/JNK in TAK1-D/K63W transfected cells (SAPK/JNK pathway; [1])	effect on cells, Crystal Violet (HCC2279 cells; HCC2279, 5 nM)	effect on cells, Crystal Violet (HCC2279 cells; HCC2279, 10 to 20 nM)	effect on cells, Crystal Violet (H460 cells; H460, 5 nM, 48 h)	effect on cells, Crystal Violet (H460 cells; H460, 10 nM to 20 nM, 48 h)	cell death, crystal violet (H460 cells; H460-wt and H460-vec, 5 or 10 nM, 48 h)	cell death, crystal violet (H460 cells; TAK1-D/K63W transfected H460, 5 or 10 nM, 48 h)	protein levels of Tlk1 (TLK1)	p38 activation by phosphorylation (p38)	induced activating phosphorylation of p38 MAPK in cells expressing dominant-negative Tak1-D (K63W) (p38 MAP kinase pathway; H460, adenoviral K63W vs β-galactosidase vector, 20 nM dsRNA 4 h)	activation of the p38 MAP kinase pathway (phosphorylation of MKK3/6, p38 MAPK) (p38 MAP kinase pathway)	activation of the p38 MAP kinase pathway (phosphorylation of MKK3/6, p38 MAPK) (p38 MAP kinase pathway; listed as Si5)	activating phosphorylation of p38 MAP kinase in TAK1-D/K63W transfected cells (p38 MAP kinase pathway; [1])	autophosphorylation activity of the TAK1-D/TAB1 complex (TAK1-D/TAB1 complex)	toxicity, crystal violet (HCC2279 cells; HCC2279, concentration range tested)	cell death, crystal violet (H460 cells; H460, 48 hours after transfection, shRNA experiment)	toxicity, crystal violet (H460 cells; H460-wt, H460-vec, H460-K63W, 48 h)
si5: 21-mer siRNA against TLK1 mRNA: GGCUUUUGACCUUUAUGAAtt (SEQ ID NO: 2) / ttCCGAAAACUGGAAAUACUU (SEQ ID NO: 3) (sense GGCUUUUGACCUUUAUGAATT; antisense TTCCGAAAACUGGAAAUACUU; chemistry not given here; one strand is listed 3' to 5')	activation of the stress-activated protein kinase jun-amino-terminal kinase (SAPK/JNK) pathway	phosphorylation and activation of MKK3/6 as well as MKK4	very significant reduction; also recorded: significantly reduced	small effect on cell growth	significant cell death	slight growth retardation	significant cell kill	massive cell death	survive the treatment and not	remain unchanged	p38 is activated by phosphorylation	significantly reduced	activation of the p38 MAP kinase pathway; also recorded: able to activate Tak1-D and consecutively p38 MAPK; also recorded: activate the pathway most effectively	phosphorylation and activation of MKK3/6 as well as MKK4	very significant reduction; also recorded: significantly reduced	increase in autophosphorylation activity; also recorded: increased the autophosphorylation activity			
si6: control 21-mer siRNA against TLK1 mRNA: GGGUGGAAAUGGCUCAAGUtt (SEQ ID NO: 4) / gtCCCACCUUUACCGAGUUCA (SEQ ID NO: 5) (sense GGGUGGAAAUGGCUCAAGUTT; antisense GTCCCACCUUUACCGAGUUCA; chemistry not given here; one strand is listed 3' to 5') [reference compound]	had no effect; also recorded: does not occur; also recorded: No activation									remain unchanged	not		had no effect; also recorded: does not occur; also recorded: No activation			not	no significant toxicity	no cell death or growth inhibition could be observed	no significant toxicity can be observed
